Literature values, collected in patent publication US20020147153A1, “Nutritional supplement to alleviate symptoms associated with reduced levels of serotonin” (Functional Foods, Inc., priority 2001, published 2002).

Tests used:
[1] = area under glycemic response curve, 2-hour period after 50 g carbohydrate, relative to white bread or glucose standard

Cn1c(=O)c2c(ncn2C)n(C)c1=O [Caffeine]
time to increased mental alertness (safe and rapid manner): approximately 30 minutes | time of maximum effect (then almost entirely excreted): 2 to 4.5 h

O=C(CO)[C@@H](O)[C@H](O)[C@H](O)CO [Fructose]
glycemic index (GI) [1]: 32
